Structures can show the parent of a compound that is named as a salt. Where two headings read alike, the source gives them in different places.
What was measured:
[1] = Shelf stability (precipitation) of formulated compound; format: physicochemical; settings: 72 hours after preparation; 0.6 mg/mL in 9.6% polyethylene glycol 300, 0.4% polysorbate 20 and 5% dextrose
Procedure: Compound 1 Tartrate salt solubility is equal to 0.1 mg/mL. […] This increase in solubility has a positive impact on the shelf stability of formulated Compound 1.

[2] = test system: human prostatic adenocarcinoma cancer PC3 cells; assay: Growth of PC3 prostatic tumors in SCID mice; format: in vivo; settings: 5 consecutive intravenous injections; Compound 1 Mesylate Salt 4.84 μMoles/Kg; Compound 66 4.84 or 14.51 μMoles/Kg (FIG. 6)
Procedure: The human prostatic adenocarcinoma cancer PC3 cells were purchased from the American Type Culture Collection (ATCC). These cells were confirmed to be free of mycoplasma infection. Cells were maintained in the Roswell Park Memorial Institute (RPMI), supplemented with 10% inactivated fetal bovine serum and 1% penicillin-streptomycin-L-Glutamine, under 5% carbon dioxide (CO2) at 37° C. For prostatic-tumor induction, cells were grown lower than 70% confluence in complete medium and then collected with trypsin (Bio Whittaker, Rockland, Me., USA). Cells were then centrifuged and washed 2 times in phosphate buffer solution (PBS) and resuspended in PBS at 1.5×10^6 cells/0.1 mL. PC3 cells were then transplanted subcutaneously into the flank of SCID mice (Charles River Laboratories, Wilmington, Mass., USA), as a suspension of tumor cells (1.5×10^6 cells in 100 μL PBS), under a laminar airflow hood. Eleven (11) days later, the size of each tumor was measured. […] Relative tumor size and volume was calculated as follows: length (cm)×[width (cm)]^2/2. […]

[3] = test system: PC-3 human prostatic carcinoma cell line; assay: Cell viability by cellular ATP levels (ViaLight), PC-3; format: cell-based; settings: PC-3, Prostate, ATP levels 72 h post-treatment, read-out: IC50 of Compound 1 tartrate
Procedure: (§1) One day after plating, the cells were treated with various concentrations of Compound 1 Tartrate. Stock solutions of the Compound 1 Tartrate were prepared in dimethyl sulfoxide (Sigma-Aldrich Inc., St. Louis, Mo., USA), diluted in the recommended media and then added to the cells. The total dimethyl sulfoxide on the cells was 1%. […] The results were plotted relative to untreated control cells, which were set at a value of 100.

[4] = test system: SW-480 human adenocarcinoma cell line; assay: Cell viability by cellular ATP levels (ViaLight), SW-480; format: cell-based; settings: SW480, SW-480, Colorectal, ATP levels 72 h post-treatment, read-out: IC50 of Compound 1 tartrate
Procedure: as §1

[5] = test system: C33A cervical carcinoma cells; assay: Cell viability by cellular ATP levels (ViaLight), C33A; format: cell-based; settings: Homo sapiens
Procedure: as §1
(§2) As depicted in Table 4, these compounds were efficient in decreasing cellular ATP levels in H1299 and C33A cancer cell lines. […], these compounds are believed to have utility in the in vivo methods of the invention, i.e., treatment and prevention of cancer and viral infections, respectively. It should be noted that, although this cell-based assay is believed to be indicative of anti-oncogenic activity in vivo, it is not the only useful assay for evaluating the anti-oncogenic activity of Triheterocyclic Compounds of the invention. In addition, the anti-viral and other biological activity of compounds of the invention can be determined and evaluated in other assay systems known to the skilled artisan.

[6] = test system: A549 human lung carcinoma cell line; assay: Cell viability by cellular ATP levels (ViaLight), A549; format: cell-based; settings: A549, NSCLC, ATP levels 72 h post-treatment, read-out: IC50 of Compound 1 tartrate
Procedure: as §1

[7] = test system: HMEC normal mammary epithelial cells; assay: Cell viability by cellular ATP levels (ViaLight), HMEC; format: cell-based; settings: Homo sapiens, Normal Breast, ATP levels 72 h post-treatment, read-out: IC50 of Compound 1 tartrate
Procedure: as §1

[8] = test system: H460 non-small cell lung cancer cell line; assay: Cell viability by cellular ATP levels (ViaLight), H460; format: cell-based; settings: Homo sapiens, NCI-H460; H460, NSCLC; ATP levels 72 h post-treatment; read-out: IC50 of Compound 1 tartrate
Procedure: as §1

[9] = test system: OVCAR-3 human ovarian carcinoma cell line; assay: Cell viability by cellular ATP levels (ViaLight), OVCAR-3; format: cell-based; settings: OVCAR-3, Ovary, ATP levels 72 h post-treatment, read-out: IC50 of Compound 1 tartrate
Procedure: as §1

[10] = test system: C33A human cervical cancer cells; assay: Growth of C33A cervical tumors in SCID mice; format: in vivo, CB17 SCID/SCID mice; settings: 4.5 mg/kg IV once a day for five days (FIG. 3)
Procedure: Viability was examined by staining with trypan blue (Gibco, NY, USA) and only flasks with cell viability greater than 95% were used for in vivo studies.
(§3) There were three treatment groups of ten mice each: (a) a negative control group, (b) a positive control group and (c) a group treated with Compound 1 Tartrate.
(§4) Treatments started on day fourteen after C33A cells transplantation. Compound 1 Tartrate was administered IV once daily for five consecutive days at a dose of 4.5 mg/kg. Compound 1 Tartrate was prepared fresh daily in a vehicle solution of 5% Dextrose (Abbot Laboratories, QC, Canada) and 2% polysorbate 20 (Sigma, St. Louis, Mo., USA). The negative control group was treated with vehicle alone. The injection volume for both Compound 1 Tartrate group and the negative control group was 150 μl.
(§5) Observation continued for 40 days after initial tumor implantation.

[11] = test system: B16-F1 mouse melanoma cell line; assay: Cell viability by cellular ATP levels (ViaLight), B16-F1; format: cell-based; settings: B16-F1, Murine Melanoma, ATP levels 72 h post-treatment, read-out: IC50 of Compound 1 tartrate
Procedure: as §1

[12] = test system: MCF-7 human breast cancer cell line; assay: Cell viability by cellular ATP levels (ViaLight), MCF-7; format: cell-based; settings: MCF7, MCF-7, Breast, ATP levels 72 h post-treatment, read-out: IC50 of Compound 1 tartrate
Procedure: as §1

[13] = test system: cancer cell lines H1299 and C33A; normal cell lines HMEC and MRC-5; assay: Cellular ATP levels, cancer cell lines compared with normal cell lines; format: cell-based
Procedure: as §1

[14] = test system: ADR-RES human breast cancer cell line; assay: Cell viability by cellular ATP levels (ViaLight), NCI/ADR-RES; format: cell-based; settings: Breast (multi-drug resistant), ATP levels 72 h post-treatment, read-out: IC50 of Compound 1 tartrate
Procedure: as §1

[15] = test system: H1299 human non-small cell lung cancer cells; assay: Cell viability by cellular ATP levels (ViaLight), H1299; format: cell-based
Procedure: as §1, §2

[16] = Solubility (filtration, LC/MS)
Procedure: To determine whether a compound is soluble in a solution, the solution was filtered on 0.2 μM polytetrafluoroethylene filters (Whatman Inc. Clifton, N.J., USA) and the compound concentration in the filtrate was measured by LC/MS and compared to the expected concentration.
The column used was XTerra MS C18: 50×2.1 mm, 3.5 mm column at 20° C. Samples were injected and separated under the following conditions: The mobile phase “A” consisted of 5 mM ammonium formate, 0.1% formic acid in water and mobile phase “B” consisted of 5 mM ammonium formate, 0.1% formic acid in methanol. […] The Mass Spectrometer system consisted of a Waters ZQ2000 single quadrupole mass spectrometer (Waters, Milford, Mass., USA) equipped with an Electrospray Ionization Source (ES). The mass detector was operated in positive ion mode (ES+) and Selected Ion Recording mode (SIR). Compounds were detected at m/z equal to their respective molecular weight plus 1.

[17] = target: T1, human placental alkaline phosphatase (Homo sapiens, UniProt P05187); assay: Conversion of phosphate pro-drug by human placental alkaline phosphatase; format: in vitro ADME; settings: 15 μM, 0.02 U/100 μL enzyme, pH 7.4, up to 120 minutes (FIG. 4)
T1 construct: purchased Sigma-Aldrich Canada Ltd
T1 sequence (P05187 23-506): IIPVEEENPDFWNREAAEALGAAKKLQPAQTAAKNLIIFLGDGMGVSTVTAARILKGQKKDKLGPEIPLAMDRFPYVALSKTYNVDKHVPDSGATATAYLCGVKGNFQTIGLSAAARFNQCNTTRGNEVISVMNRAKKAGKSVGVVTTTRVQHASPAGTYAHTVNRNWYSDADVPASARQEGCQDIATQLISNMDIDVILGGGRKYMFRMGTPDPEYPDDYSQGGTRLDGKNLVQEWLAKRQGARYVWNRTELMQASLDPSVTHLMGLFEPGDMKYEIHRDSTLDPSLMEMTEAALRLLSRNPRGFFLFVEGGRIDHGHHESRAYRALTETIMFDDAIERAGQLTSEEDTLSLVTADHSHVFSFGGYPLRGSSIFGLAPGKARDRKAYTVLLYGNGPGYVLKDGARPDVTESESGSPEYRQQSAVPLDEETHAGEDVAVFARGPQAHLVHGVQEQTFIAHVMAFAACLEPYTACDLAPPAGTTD
Procedure: (§6) The conversion into biologically active drug of phosphate pro-drugs by calf intestinal alkaline phosphatase and human placental alkaline phosphatase was measured in vitro using purified enzymes. Purified calf intestinal alkaline phosphatase (Roche Diagnostic Inc. Laval, Quebec, Canada) or human placental alkaline phosphatase (Sigma-Aldrich Canada Ltd. Oakville, Ontario, Canada) was added at a concentration of 0.02 U/100 μL to a solution containing 15 μM of Compound 66, 20 mM Tris-HCl, pH 7.4 and 0.9% NaCl. The solutions were incubated for 30, 60 or 120 minutes. A solution containing 15 μM of Compound 66, 20 mM Tris-HCl, pH 7.4 and 0.9% NaCl was used as a reference (time=0 minutes). To each solution, an equal volume (100 μL) of ice-cold acetonitrile was added, and then the mixture was vortexed and transferred to glass vials. A standard concentration curve of the pro-drug and the drug was prepared in 10 mM Tris-HCl, pH 7.4, 0.45% NaCl and 50% acetonitrile. All samples were immediately analyzed by LC/MS.

[18] = target: T2, calf intestinal alkaline phosphatase (Bos taurus, UniProt P19111); assay: Conversion of phosphate pro-drug by calf intestinal alkaline phosphatase; format: in vitro ADME; settings: 15 μM, 0.02 U/100 μL enzyme, pH 7.4, up to 120 minutes (FIG. 5)
T2 construct: purchased Roche Diagnostic Inc
T2 sequence (P19111 20-506): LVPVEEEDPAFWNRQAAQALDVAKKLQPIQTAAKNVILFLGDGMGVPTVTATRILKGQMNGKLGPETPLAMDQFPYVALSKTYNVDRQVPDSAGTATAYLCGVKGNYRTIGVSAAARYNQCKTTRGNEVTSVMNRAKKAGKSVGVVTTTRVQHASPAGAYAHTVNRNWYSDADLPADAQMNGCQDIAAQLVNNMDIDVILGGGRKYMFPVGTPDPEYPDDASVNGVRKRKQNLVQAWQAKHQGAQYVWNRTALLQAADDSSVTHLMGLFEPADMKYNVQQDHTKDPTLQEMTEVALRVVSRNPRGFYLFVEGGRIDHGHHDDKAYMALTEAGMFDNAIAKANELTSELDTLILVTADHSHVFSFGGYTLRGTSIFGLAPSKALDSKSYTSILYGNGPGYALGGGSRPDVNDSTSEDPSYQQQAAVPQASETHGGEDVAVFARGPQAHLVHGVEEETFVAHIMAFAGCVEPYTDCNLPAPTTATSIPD
Procedure: as §6

[19] = Body weight and deaths of SCID mice bearing C33A tumors; format: in vivo, CB17 SCID/SCID mice; settings: cisplatin 4 mg/kg IP; days 29 and 32, group of ten mice
Procedure: as §3, §4, §5

[20] = C-33-A, C33A, cellular ATP levels as in Example 2, read-out: IC50 (μM) C33A, Effect on Cancer Cells Viability
[21] = NCI-H1299, H1299, cellular ATP levels as in Example 2, read-out: IC50 (μM) H1299, Effect on Cancer Cells Viability
[22] = C-33-A, read-out: IC50 (μM) C33A, Effect on Cancer Cells Viability
[23] = NCI-H1299, read-out: IC50 (μM) H1299, Effect on Cancer Cells Viability

## COC1=CC(c2cc3ccccc3[nH]2)=N/C1=C\c1[nH]c(C)cc1C [Compound 1 Mesylate Salt]
[1]
  Precipitation of the formulation: no evidence of precipitation
[2]
  Growth of prostatic tumors in mice: significantly reduce the growth of prostatic tumors

## COC1=CC(c2cc3ccccc3[nH]2)=N/C1=C\c1[nH]c(C)cc1C [Compound 1 tartrate]
[3]
  IC50: 0.2 µM
[4]
  IC50: 0.2 µM
[5]; C-33A, Cervix, ATP levels 72 h post-treatment compared to untreated cells, read-out: IC50 of Compound 1 tartrate
  IC50: 0.2 µM
[6]
  IC50: 0.4 µM
[7]
  IC50: 4 µM
[8]
  IC50: 0.3 µM
[9]
  IC50: 0.2 µM
[10]
  Reduction in tumor growth compared to vehicle: statistically significant (p<0.0001) reduction in tumor growth
[11]
  IC50: 0.06 µM
[12]
  IC50: 0.6 µM
[13]; 0.5 μM, 72 hours after treatment (FIG. 1)
  Lowering of ATP levels in cancer cell lines H1299 and C33A compared with normal cell lines HMEC and MRC-5: significantly more effective at lowering ATP levels
[13]; various concentrations, ten cancer cell lines versus HMEC normal mammary epithelial cell line
  Efficacy in decreasing cellular ATP levels, cancer cell lines versus HMEC: greater efficacy in decreasing cellular ATP levels in the cancer cell lines
[14]
  IC50: 0.4 µM
[15]; NCI-H1299, H1299, NSCLC, ATP levels 72 h post-treatment, read-out: IC50 of Compound 1 tartrate
  IC50: 0.5 µM

## COC1=CC(c2cc3ccccc3[nH]2)=N/C1=C\c1[nH]c(C)cc1C [Compound 1]
[16]; water
  Solubility in water (in words): poorly soluble in water

## COC1=CC(c2cc3ccccc3n2C(=O)Nc2ccc(N(C)C)cc2)=N/C1=C/c1[nH]c(C)cc1C [Compound 52]
[5]; [20]
  IC50: 1.11 µM
[15]; [21]
  IC50: 1.04 µM

## CCOC(=O)COC1=CC(c2cc3ccccc3[nH]2)=N/C1=C\c1[nH]c(C)cc1C [Compound 53]
[5]; [22]
  IC50: 10.2 µM
[15]; [23]
  IC50: 10.6 µM

## COc1ccc(NC2=CC(c3cc4ccccc4[nH]3)=N/C2=C\c2[nH]c(C)cc2C)cc1 [Compound 61]
[5]; [20]
  IC50: 0.93 µM
[15]; [21]
  IC50: 1.11 µM

## COC(=O)CCc1c(C)[nH]c(/C=C2/N=C(c3cc4ccccc4[nH]3)C=C2OC)c1C [Compound 63]
[5]; [22]
  IC50: 0.548 µM
[15]; [23]
  IC50: 0.753 µM

## COC1=CC(c2cc3ccccc3n2C(=O)CC(C)(C)c2c(C)cccc2OP(=O)(O)O)=N/C1=C/c1[nH]c(C)cc1C [Compound 66]
[17]
  Conversion of pro-drug into Compound 1: convert a fraction of the pro-drug
[18]
  Conversion of pro-drug into Compound 1: convert a fraction of the pro-drug
[16]
  Solubility, fold greater than Compound 1 Tartrate: 100 fold
[2]
  Growth of prostatic tumors in mice: significantly reduce the growth of prostatic tumors

## N.N.[Cl][Pt][Cl] [cisplatin]
[19]
  Deaths: Two mice died
